Laboratory results reported in ChEMBL document CHEMBL6096689, “Structure-Guided Development of ClpP Agonists with Potent Therapeutic Activities against Staphylococcus aureus Infection” (J Med Chem, 2025).
Values after ≈ are worked out from the molar mass of the structure shown. Active and inactive are the calls of the source. The calls are words filed in the database; no cut-off is given here.

Experiments:
[1] = biological target: T1, ATP-dependent Clp protease proteolytic subunit (Staphylococcus aureus (strain NCTC 8325), UniProt Q2G036); assay: Agonist activity at Staphylococcus aureus ClpP extracted from Escherichia coli BL21 (DE3) cells using alpha-casein as substrate assessed as substrate hydrolysis preincubated for 15 mins followed by substrate addition and measured after 2 hrs by SDS-PAGE analysis
T1 sequence (Q2G036 whole entry): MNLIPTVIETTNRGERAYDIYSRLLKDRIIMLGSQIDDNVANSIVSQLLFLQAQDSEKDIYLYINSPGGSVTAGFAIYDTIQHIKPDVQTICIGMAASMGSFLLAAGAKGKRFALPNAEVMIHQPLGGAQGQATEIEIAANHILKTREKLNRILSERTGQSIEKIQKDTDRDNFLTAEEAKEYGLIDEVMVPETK

Staphylococcus aureus [2] = assay: microbe, parasite or virus in culture; format: functional; details: Newman, time 18 hrs
Description: Antibacterial activity against Staphylococcus aureus Newman assessed as inhibition of visible growth of bacteria incubated for 18 hrs by absorbance based analysis

[3] = Therapeutic index, ratio of IC50 for HEK293T/17 cells to MIC for Staphylococcus aureus Newman; format: toxicity, cell-based; details: human, read-out: TI
[4] = biological target: T2, ATP-dependent Clp protease proteolytic subunit (Staphylococcus aureus (strain NCTC 8325)) (UniProt Q2G036); assay: Potency index, ratio of ONC212 EC50 to test compound EC50 for agonist activity at Staphylococcus aureus ClpP extracted from Escherichia coli BL21 (DE3) cells using FITC-casein as substrate assessed as substrate hydrolysis preincubated for 60 mins followed by substrate addition and measured after 1 hrs by fluorescence based analysis; details: time 120.0 min
T2 sequence (whole entry): T1 sequence (Q2G036 whole entry)

[5] = biological target: ATP-dependent Clp protease proteolytic subunit (Escherichia coli (strain K12), UniProt P0A6G7); assay: Agonist activity at Escherichia coli ClpP using alpha-casein as substrate assessed as substrate hydrolysis preincubated for 15 mins followed by substrate addition and measured after 2 hrs by SDS-PAGE analysis
Sequence of ATP-dependent Clp protease proteolytic subunit (Escherichia coli (strain K12), UniProt P0A6G7) (P0A6G7 whole entry): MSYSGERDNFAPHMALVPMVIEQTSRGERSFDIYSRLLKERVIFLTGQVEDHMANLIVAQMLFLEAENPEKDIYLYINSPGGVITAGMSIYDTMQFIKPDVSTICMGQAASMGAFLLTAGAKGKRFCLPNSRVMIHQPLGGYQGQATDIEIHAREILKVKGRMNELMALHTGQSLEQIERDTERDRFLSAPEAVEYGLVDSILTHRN

[6] = Agonist activity at Lactobacillus acidophilus ClpP using alpha-casein as substrate assessed as substrate hydrolysis preincubated for 15 mins followed by substrate addition and measured after 2 hrs by SDS-PAGE analysis
[7] = biological target: T2, ATP-dependent Clp protease proteolytic subunit (Staphylococcus aureus (strain NCTC 8325)); assay: Induction of thermal stabilization of Staphylococcus aureus ClpP extracted from Escherichia coli BL21 (DE3) cells assessed as change in melting temperature at 10 uM incubated for 10 mins by DSF analysis
[8] = Therapeutic index, ratio of IC50 for human ARH-77 cells to MIC for Staphylococcus aureus Newman; format: toxicity, cell-based; details: read-out: TI
[9] = biological target: T2, ATP-dependent Clp protease proteolytic subunit (Staphylococcus aureus (strain NCTC 8325)); assay: Induction of thermal stabilization of CLpP in Staphylococcus aureus Newman at 10 times of MIC preincubated for 2 hrs followed by compound washout and incubated under 57.3 to 74.5 degreeC for 3 mins by CETSA
[10] = biological target: ATP-dependent Clp protease proteolytic subunit, mitochondrial (Homo sapiens, UniProt Q16740); assay: Induction of thermal stabilization of CLpP in HEK293T/17 at 10 times of MIC preincubated for 2 hrs followed by compound washout and incubated under 57.3 to 74.5 degreeC for 3 mins by CETSA; format: cell-based
Sequence of ATP-dependent Clp protease proteolytic subunit, mitochondrial (Q16740 whole entry): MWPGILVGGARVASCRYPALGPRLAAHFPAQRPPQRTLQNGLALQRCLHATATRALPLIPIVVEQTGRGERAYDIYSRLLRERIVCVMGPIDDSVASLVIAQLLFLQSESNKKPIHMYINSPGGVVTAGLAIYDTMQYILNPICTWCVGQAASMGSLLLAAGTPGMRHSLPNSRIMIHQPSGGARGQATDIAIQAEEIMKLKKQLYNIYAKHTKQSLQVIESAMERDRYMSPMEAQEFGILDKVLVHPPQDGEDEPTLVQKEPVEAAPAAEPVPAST

[11] = biological target: T3, Cell division protein FtsZ (Staphylococcus aureus) (UniProt P0A031); assay: Induction of FtsZ degradation in Staphylococcus aureus 8325-4 incubated for 3 hrs by Western blot analysis; details: dose 1.25-10 µM
T3 sequence (whole entry): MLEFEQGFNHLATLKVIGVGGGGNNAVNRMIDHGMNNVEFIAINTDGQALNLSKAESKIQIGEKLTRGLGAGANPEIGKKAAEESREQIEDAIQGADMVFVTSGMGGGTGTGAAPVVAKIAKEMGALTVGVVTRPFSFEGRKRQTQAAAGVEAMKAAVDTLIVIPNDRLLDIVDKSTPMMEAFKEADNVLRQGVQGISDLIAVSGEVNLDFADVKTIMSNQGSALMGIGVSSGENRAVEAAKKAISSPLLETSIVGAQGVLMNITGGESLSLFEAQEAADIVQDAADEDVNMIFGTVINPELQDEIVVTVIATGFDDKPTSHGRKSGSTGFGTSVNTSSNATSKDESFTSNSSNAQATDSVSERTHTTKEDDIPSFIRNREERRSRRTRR

Staphylococcus aureus [12] = assay: microbe, parasite or virus in culture; format: functional; details: NRS-1, time 18 hrs
Description: Antibacterial activity against methicillin-resistant Staphylococcus aureus NRS-1 assessed as inhibition of visible growth of bacteria incubated for 18 hrs by absorbance based analysis

Staphylococcus aureus [13] = assay: microbe, parasite or virus in culture; format: functional; details: NRS-70, time 18 hrs
Description: Antibacterial activity against methicillin-resistant Staphylococcus aureus NRS-70 assessed as inhibition of visible growth of bacteria incubated for 18 hrs by absorbance based analysis

Staphylococcus aureus [14] = assay: microbe, parasite or virus in culture; format: functional; details: NRS-108, time 18 hrs
Description: Antibacterial activity against methicillin-resistant Staphylococcus aureus NRS-108 assessed as inhibition of visible growth of bacteria incubated for 18 hrs by absorbance based analysis

Staphylococcus aureus [15] = assay: microbe, parasite or virus in culture; format: functional; details: time 18 hrs
Description: Antibacterial activity against multidrug-resistant Staphylococcus aureus clinical isolate XJ009 assessed as inhibition of visible growth of bacteria incubated for 18 hrs by absorbance based analysis

Staphylococcus aureus [16] = assay: microbe, parasite or virus in culture; format: functional; details: time 18 hrs; remark: listed apart in the source
Description: Antibacterial activity against multidrug-resistant Staphylococcus aureus clinical isolate XJ052 assessed as inhibition of visible growth of bacteria incubated for 18 hrs by absorbance based analysis

Staphylococcus aureus [17] = assay: Antibacterial activity against Staphylococcus aureus USA300 infected in Zebrafish infection model assessed as increase in zebrafish survival at 5 mg/kg pre-infected for 1 hrs followed by compound addition and measured after 5 days; format: functional, organism-based; details: time 5.0 day
Staphylococcus aureus [18] = assay: Antibacterial activity against Staphylococcus aureus USA300 infected in Zebrafish infection model assessed as increase in zebrafish survival at 25 mg/kg pre-infected for 1 hrs followed by compound addition and measured after 5 days; format: functional, organism-based; details: time 5.0 day
Staphylococcus aureus [19] = assay: Antibacterial activity against Staphylococcus aureus USA300 infected in Zebrafish infection model assessed as increase in zebrafish survival at 0.5 mg/kg pre-infected for 1 hrs followed by compound addition and measured after 5 days; format: functional, organism-based; details: time 5.0 day
Staphylococcus aureus [20] = assay: Antibacterial activity against Staphylococcus aureus USA300 infected in female ICR mouse peritonitis model assessed as increase in mouse survival at 25 to 100 mg/kg, ip pre-infected for 1 hrs followed by compound addition and measured after 5 days relative to control; format: functional; details: dose 25-100 mg/kg, time 5 day
Staphylococcus aureus [21] = assay: Antibacterial activity against Staphylococcus aureus USA300 infected in female ICR mouse peritonitis model assessed as reduction in bacterial load in heart at 25 to 100 mg/kg, ip pre-infected for 1 hrs followed by compound addition and measured after 5 days relative to control; format: functional; details: dose 25-100 mg/kg, time 5 day
Staphylococcus aureus [22] = assay: Antibacterial activity against Staphylococcus aureus USA300 infected in female ICR mouse peritonitis model assessed as reduction in bacterial load in spleen at 25 to 100 mg/kg, ip pre-infected for 1 hrs followed by compound addition and measured after 5 days relative to control; format: functional; details: dose 25-100 mg/kg, time 5 day
Staphylococcus aureus [23] = assay: Antibacterial activity against Staphylococcus aureus USA300 infected in female ICR mouse peritonitis model assessed as reduction in bacterial load in kidney at 25 to 100 mg/kg, ip pre-infected for 1 hrs followed by compound addition and measured after 5 days relative to control; format: functional; details: dose 25-100 mg/kg, time 5 day
Staphylococcus aureus [24] = assay: Antibacterial activity against oxacillin-resistant Staphylococcus aureus clinical isolate XJ049 infected in female ICR mouse peritonitis model assessed as mouse survival at 50 mg/kg, ip pre-infected for 1 hrs followed by compound addition and measured after 5 days relative to control; format: functional; details: 120 h, time 5 day
[25] = Toxicity in female ICR mouse model of peritonitis infected with Staphylococcus aureus USA300 assessed as effect on body weight at 50 mg/kg, ip pre-infected for 1 hrs followed by compound addition and measured after 5 days; format: organism-based; details: in vivo, 120 h, time 5 day
[26] = Toxicity in female ICR mouse model of peritonitis infected with oxacillin-resistant Staphylococcus aureus clinical isolate XJ049 assessed as effect on body weight at 50 mg/kg, ip pre-infected for 1 hrs followed by compound addition and measured after 5 days; format: organism-based; details: in vivo, 120 h, time 5 day

## CC[C@H](C)[C@H]1C(=O)N(Cc2ccc(OC)c3ccccc23)C[C@@H]2N(C(=O)NCCCC(F)(F)F)CCC(=O)N12
[1]
  EC50: 1.1 µM
Staphylococcus aureus [2]
  MIC: 0.063 µg/mL (≈ 0.115 µM)
[3]
  selectivity ratio: 190
[4]
  Ratio EC50: 2.2
[5]
  EC50: > 100 µM
[6]
  EC50: > 100 µM
[7]
  ΔTm: 22.8 °C
[8]
  selectivity ratio: 206
[9]
  Activity: Active
[10]
  Activity: Active; Minimal Effect On Thermal Stability Observed
[11]
  Activity: Dose-dependent-effect
Staphylococcus aureus [12]
  MIC: 0.13 µg/mL (≈ 0.237 µM)
Staphylococcus aureus [13]
  MIC: 0.06 µg/mL (≈ 0.109 µM)
Staphylococcus aureus [14]
  MIC: 0.06 µg/mL (≈ 0.109 µM)
Staphylococcus aureus [15]
  MIC: 0.06 µg/mL (≈ 0.109 µM)
Staphylococcus aureus [16]
  MIC: 0.13 µg/mL (≈ 0.237 µM)
Staphylococcus aureus [17]
  Activity: Active; Comparable To 25 Mg/Kg Of (R)-Zg197
Staphylococcus aureus [18]
  Activity: Active
Staphylococcus aureus [19]
  Activity: Active; Significant Improvement Observed Compared To 0.5 Mg/Kg Of Vancomycin
Staphylococcus aureus [20]
  Activity: 89%
Staphylococcus aureus [21]
  Activity: 2 log10CFU/g
Staphylococcus aureus [22]
  Activity: 2 log10CFU/g
Staphylococcus aureus [23]
  Activity: 2 log10CFU/g
Staphylococcus aureus [24]
  survival at 50 mg/kg: 100%
[25]
  Activity: Non-toxic
[26]
  Activity: Non-toxic
